Where a SMILES comes first, the peptide text is derived from it. [ ]: non-standard residue; d: D form. The star is where a group is joined. dPhe(4-NHCONH2) = NC(=O)Nc1ccc(C[C@@H](N)C(=O)O)cc1; Dihydroorotyl(S) = O=C1C[C@@H](C(=O)*)NC(=O)N1; dPhe(4-Cl) = N[C@H](Cc1ccc(Cl)cc1)C(=O)O; Phe(4-NH2) = Nc1ccc(C[C@H](N)C(=O)O)cc1; d2Nal = N[C@H](Cc1ccc2ccccc2c1)C(=O)O; Lys(iPr) = CC(C)NCCCC[C@H](N)C(=O)O; d3Pal = N[C@H](Cc1cccnc1)C(=O)O
Conditions: dog, in vivo, sc

## CC(=O)N[C@H](Cc1ccc2ccccc2c1)C(=O)N[C@H](Cc1ccc(Cl)cc1)C(=O)N[C@H](Cc1cccnc1)C(=O)N[C@@H](CO)C(=O)N[C@@H](Cc1ccc(NC(=O)[C@@H]2CC(=O)NC(=O)N2)cc1)C(=O)N[C@H](Cc1ccc(NC(N)=O)cc1)C(=O)N[C@@H](CC(C)C)C(=O)N[C@@H](CCCCNC(C)C)C(=O)N1CCC[C@H]1C(=O)N[C@H](C)C(N)=O [Peptide 1, Ac-DNal-DCpa-DPal-Ser-Aph(L-Hor)-DAph(CONH2)-Leu-Lys(iPr)-Pro-DAla-NH2] (Ac-[d2Nal][dPhe(4-Cl)][d3Pal]S[Phe(4-NH2)](Dihydroorotyl(S))[dPhe(4-NHCONH2)]L[Lys(iPr)]P[dA]-NH2)
  Fraction of the total dose absorbed, subcutaneous compared to intramuscular administration: almost twice as high
